Results: patent US20230009608A1, “GRK2 INHIBITORS AND USES THEREOF” (Cygnal Therapeutics, Inc., priority 2020, published 2023)

Biological target: T1, GRK2 (Homo sapiens, UniProt P25098)
T1 construct: purchased SignalChem A14-10G
T1 sequence (P25098 1-689): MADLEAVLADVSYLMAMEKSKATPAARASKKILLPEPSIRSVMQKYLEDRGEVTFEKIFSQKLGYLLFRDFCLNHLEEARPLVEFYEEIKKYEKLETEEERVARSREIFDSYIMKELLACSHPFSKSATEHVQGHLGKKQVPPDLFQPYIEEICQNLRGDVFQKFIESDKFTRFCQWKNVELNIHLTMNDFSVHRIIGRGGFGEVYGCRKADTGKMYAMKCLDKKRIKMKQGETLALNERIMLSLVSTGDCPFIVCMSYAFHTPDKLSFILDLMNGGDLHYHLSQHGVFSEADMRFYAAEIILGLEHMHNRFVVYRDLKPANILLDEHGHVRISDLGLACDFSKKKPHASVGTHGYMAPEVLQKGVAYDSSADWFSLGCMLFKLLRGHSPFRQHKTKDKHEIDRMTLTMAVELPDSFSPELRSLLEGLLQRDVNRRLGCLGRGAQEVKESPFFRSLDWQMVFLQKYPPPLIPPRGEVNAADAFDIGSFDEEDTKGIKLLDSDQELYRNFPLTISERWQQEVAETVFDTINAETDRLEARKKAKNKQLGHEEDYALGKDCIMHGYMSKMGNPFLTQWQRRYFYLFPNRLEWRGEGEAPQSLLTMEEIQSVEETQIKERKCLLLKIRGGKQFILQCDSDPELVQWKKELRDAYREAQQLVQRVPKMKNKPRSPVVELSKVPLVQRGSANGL
Test: ADPGlo GRK2 Inhibition Assay (Example 8)
Assay type: biochemical
Details: 7.5 nM GRK2, 10 μM ATP, ADP-Glo; read-out: GRK2 IC50 (nM) (Example 8)
Description: HTS was performed using 1 μM compound.
Compounds were dissolved in 100% DMSO, serially diluted tree-fold from 100 μM concentration to 46 nM and transferred (50 nL) into assay ready plate.
Materials: GRK2 was purchased from SignalChem (Cat #A14-10G, Lot #X^645-3). Substrate GRKtide was from SignalChem (Cat #G46-58, Lot #R339-6). ADP-Glo Kinase Assay from Promega (Cat #V9102). Assay buffer consisted of 25 mMv HEPES (pH7.5), 10 mMv MgCl2, 0.01% Tween-20, 1 mM DDT. 384-well white plates were from Greiner […] (Item #784075).
HTS protocol: Take 384 well plate with 50 nL of compound in columns 3-22/DMSO solution 1-2,23-24. Add 2.5 μL assay buffer to columns 23 and 24 using Thermo Scientific Multidrop Combi Dispenser. Add 2.5 μL of 2× enzyme solution (15 nM in 1× assay buffer) using Thermo Scientific Multidrop Combi Reagent Dispenser to all columns except of 23 and 24. Incubate for 15 minutes. Fill plate with 2.5 μL of 2× substrate mix (20 μM ATP and 0.6 mg/nt GRKtide in Ix assay buffer) using Thermo Scientific Multidrop Combi Reagent Dispenser. Spin 15 seconds at 1000 rpm and incubate for 180 min at room temperature. Add 5 μL ADP-Glo reagent to all the wells. Spin 15 seconds at 1000 rpm and incubate for 40 min at room temperature. Add 10 μL Detection solution to all the wells. Incubate for 30 min at room temperature. Read plate in Luminescent modeon BMG PheraStar FSX (gain=3600).
Data Analysis: Data were analyzed in GraphPad Prism 8.0.2. Each HTS plate contains compounds in columns 3-22, controls (enzyme, no compound) in columns 1 and 2, and blanks (no enzyme) in columns 23 and 24. HTS percent inhibition was calculated for each compound from the signal in luminescence units and the mean of the plate controls and the mean of the plate blanks using the following equation: % Inhibition=100*(1−((signal-blank mean)/(control mean-blank mean))). At the final stage of data processing, we obtain dose-response curves, tables and SDF-files with the results of screening for each substance.

SMILES | IC50 [nM]
Cc1cccnc1CNC(=O)c1cccc(NCc2nnc(-c3ccncn3)n2C)c1 [compound 11] | 14
Cn1c(CNc2cccc(C(=O)NCc3ccncc3Cl)c2)nnc1-c1ccncn1 [compound 13] | 9.1
CN1CCC(NC(=O)c2cccc(NCc3nnc(-c4ccncn4)n3C)c2)c2ccccc21 (stereo not shown) [compound 16] | 37
Cn1c(CNc2cccc(C(=O)NCc3ccnc(OCC(F)(F)F)c3)c2)nnc1-c1ccncn1 [compound 19] | 17
CCC[C@H](NC(=O)c1cccc(NCc2nnc(-c3ccncn3)n2C)c1)c1ccccn1 [compound 21] | 67
C[C@H](NC(=O)c1cccc(NCc2nnc(-c3ccncn3)n2C)c1)c1cccnc1 [compound 22] | 420
Cn1c(CNc2cccc(C(=O)NCc3cccc4cccnc34)c2)nnc1-c1ccncn1 [compound 24] | 61
COc1cccc([C@@H](C)NC(=O)c2cccc(NCc3nnc(-c4ccncn4)n3C)c2)c1 [compound 27] | 12
COc1cccc2c1CC[C@H]2NC(=O)c1cccc(NCc2nnc(-c3ccncn3)n2C)c1 [compound 30] | 15
Cn1c(CNc2cccc(C(=O)N[C@@H]3COCc4ccccc43)c2)nnc1-c1ccncn1 [compound 31] | 22
CC1Cc2cc(CNC(=O)c3cccc(NCc4nnc(-c5ccncn5)n4C)c3)ccc2O1 (stereo not shown) [compound 32] | 22
Cn1ccnc1[C@@H](NC(=O)c1cccc(NCc2nnc(-c3ccncc3)[nH]2)c1)C1CC1 [compound 34] | 10
Cc1cc2c(cc1CNC(=O)c1cccc(NCc3nnc(-c4ccncn4)n3C)c1)OCCO2 [compound 36] | 0.5
Cc1cccc2ncc(CNC(=O)c3cccc(NCc4nnc(-c5ccncn5)n4C)c3)n12 [compound 37] | 0.79
Cc1cccc(C(CO)NC(=O)c2cccc(NCc3nnc(-c4ccncn4)n3C)c2)c1 (stereo not shown) [compound 39] | 1.1
Cn1c(CNc2cccc(C(=O)NCc3ccc4nccn4c3)c2)nnc1-c1ccncn1 [compound 40] | 1.7
CCOc1ccc(C(CO)NC(=O)c2cccc(NCc3nnc(-c4ccncn4)n3C)c2)cn1 (stereo not shown) [compound 41] | 1.8

SMILES | IC50 [nM]
Cn1c(CNc2cccc(C(=O)NCc3ccc(-n4nccn4)cc3)c2)nnc1-c1ccncn1 [compound 42] | 2.1
Cn1c(CNc2cccc(C(=O)NCc3cccc(C#N)c3)c2)nnc1-c1ccncn1 [compound 43] | 2.7
Cc1ccc2ncc(CNC(=O)c3cccc(NCc4nnc(-c5ccncn5)n4C)c3)n2c1 [compound 44] | 2.8
Cc1ccn2c(CNC(=O)c3cccc(NCc4nnc(-c5ccncn5)n4C)c3)cnc2c1 [compound 45] | 3
Cc1ccc(C(CO)NC(=O)c2cccc(NCc3nnc(-c4ccncn4)n3C)c2)cc1 (stereo not shown) [compound 46] | 3.3
Cn1c(CNc2cccc(C(=O)NCc3cnccc3Cl)c2)nnc1-c1ccncn1 [compound 47] | 4.3
COc1cccc(C(C)NC(=O)c2cccc(NCc3nnc(-c4ccncn4)n3C)c2)c1 (stereo not shown) [compound 48] | 4.4
COc1cccc(C(CO)NC(=O)c2cccc(NCc3nnc(-c4ccncn4)n3C)c2)c1 (stereo not shown) [compound 49] | 5.4
Cn1ccnc1C(NC(=O)c1cccc(NCc2nnc(-c3ccncc3)[nH]2)c1)C1CC1 (stereo not shown) [compound 50] | 5.5
Cn1nccc1CNC(=O)c1cccc(NCc2nnc(-c3ccncn3)n2C)c1 [compound 51] | 5.7
CC(NC(=O)c1cccc(NCc2nnc(-c3ccncn3)n2C)c1)c1c[nH]cn1 (stereo not shown) [compound 52] | 5.7
CCS(=O)(=O)c1ccc(CNC(=O)c2cccc(NCc3nnc(-c4ccncn4)n3C)c2)cc1 [compound 53] | 6.2
Cn1c(CNc2cccc(C(=O)NCc3ccc(C#N)cc3)c2)nnc1-c1ccncn1 [compound 54] | 6.3
Cn1c(CNc2cccc(C(=O)NCc3cnn(-c4ccccc4)n3)c2)nnc1-c1ccncn1 [compound 55] | 6.5
Cn1c(CNc2cccc(C(=O)NC3c4ccccc4CC3O)c2)nnc1-c1ccncn1 (stereo not shown) [compound 56] | 7.3
Cn1c(CNc2cccc(C(=O)NCc3ccc4c(c3)CCN4)c2)nnc1-c1ccncn1 [compound 57] | 9.4
Cn1c(CNc2cccc(C(=O)NCc3ccc(-n4ccnn4)cc3)c2)nnc1-c1ccncn1 [compound 58] | 9.5

Same assay, conditions: ADPGlo GRK2 enzyme assay; read-out: A: Enzymatic GRK2: IC50 (nM) (Example 8)

SMILES | IC50 [nM]
C#COc1ccc(C(=O)c2ccc(OCCCCC(=O)NCCOCCOCCOc3cccc(CNC(=O)c4cccc(NCc5nnc(-c6ccncn6)n5C)c4)c3)cc2)cc1 | > 1000

Same assay, conditions: Enzyme Assay A, ADPGlo (Example 8); read-out: A: Enzymatic GRK2: IC50 (nM) (Example 8)

SMILES | IC50 [nM]
Cn1c(CNc2cccc(C(=O)NCc3ccc(F)cc3F)c2)nnc1-c1ccncn1 | 15
Cn1c(CNc2cccc(C(=O)NCc3cc(F)ccc3F)c2)nnc1-c1ccncn1 | 27
Cc1ncsc1CNC(=O)c1cccc(NCc2nnc(-c3ccncn3)n2C)c1 | 16
Cc1cccc([C@H](C)NC(=O)c2cccc(NCc3nnc(-c4ccncn4)n3C)c2)n1 | 95
COc1ccc(F)cc1CNC(=O)c1cccc(NCc2nnc(-c3ccncn3)n2C)c1 | 15
Cn1c(CNc2cccc(C(=O)N[C@@H](CF)c3ccccc3)c2)nnc1-c1ccncn1 | 97
Cn1c(CNc2cccc(C(=O)NC(CO)c3ccccc3F)c2)nnc1-c1ccncn1 (stereo not shown) | 60
Cn1c(CNc2cccc(C(=O)NC3CCCOc4ccccc43)c2)nnc1-c1ccncn1 (stereo not shown) | 92
Cc1cc(CNC(=O)c2cccc(NCc3nnc(-c4ccncn4)n3C)c2)c(C)n1-c1ccccc1 | 15
Cn1c(CNc2cccc(C(=O)NCc3nc4ccccc4[nH]3)c2)nnc1-c1ccncn1 | 100
Cn1c(CNc2cccc(C(=O)NC(c3ccccc3)C(C)(C)CO)c2)nnc1-c1ccncn1 (stereo not shown) | 880
COc1cccc(C2(NC(=O)c3cccc(NCc4nnc(-c5ccncn5)n4C)c3)CC2)c1F | 23
O=C(NCc1ccccn1)c1cccc(NCc2nnc(-c3ccncc3)[nH]2)c1 | 36
Cn1c(CNc2cccc(C(=O)NCc3ccc(Br)cn3)c2)nnc1-c1ccncn1 | 140
Cc1cc(CNC(=O)c2cccc(NCc3nnc(-c4ccncn4)n3C)c2)no1 | 110
Cc1cnc(CNC(=O)c2cccc(NCc3nnc(-c4ccncn4)n3C)c2)cn1 | 150
Cn1c(CNc2cccc(C(=O)NCc3c[nH]cn3)c2)nnc1-c1ccncn1 | 110
Cc1cnc(CNC(=O)c2cccc(NCc3nnc(-c4ccncn4)n3C)c2)nc1 | 580
CCS(=O)(=O)c1ccc(CNC(=O)c2cccc(NCc3nnc(-c4ccncn4)n3C)c2)nc1 | 100
Cn1c(CNc2cccc(C(=O)NCc3ccc(S(C)(=O)=O)cn3)c2)nnc1-c1ccncn1 | 240
CC(NC(=O)c1cccc(NCc2nnc(-c3ccncn3)n2C)c1)c1nnc2ccccn12 (stereo not shown) | 260
CN(C)C[C@@H](NC(=O)c1cccc(NCc2nnc(-c3ccncn3)n2C)c1)c1ccccc1 | 210
Cn1c(CNc2cccc(C(=O)NCc3ncc(Cl)cn3)c2)nnc1-c1ccncn1 | 240
Cn1c(CNc2cccc(C(=O)NC(CCO)c3ccc(F)cc3)c2)nnc1-c1ccncn1 (stereo not shown) | 52
COc1ccc2c(c1)[C@@H](NC(=O)c1cccc(NCc3nnc(-c4ccncn4)n3C)c1)CCO2 | > 1000
Cn1c(CNc2cccc(C(=O)N[C@@H]3COCc4ccccc43)c2)nnc1-c1ccncc1 | 201
Cn1c(CNc2cccc(C(=O)N[C@H]3COCc4ccccc43)c2)nnc1-c1ccncc1 | 100
Cn1c(CNc2cccc(C(=O)N[C@@H]3COc4cc(F)ccc43)c2)nnc1-c1ccncc1 | 143
COc1cccc([C@H](C)NC(=O)c2cccc(NCc3nnc(-c4ccncc4)n3C)c2)c1 | 117
